Assays:
[1] = Reaction with phenethyl mercaptan in methanol (chemical model of proton pump thiol reactivity); details: for conversion to 2-mercaptobenzimidazole on reaction with phenethyl mercaptan / time after which reaction with phenethyl mercaptan is complete: methanol
Description: A useful in vitro model for obtaining an indication of the reactivity of thiadiazole compound towards the proton pump enzyme for deactivation thereof is provided by the reactivity of the thiadiazole compound towards phenethylmercaptan. The chemical mechanism of this process, as applied to the thiadiazolobenzimidazole compounds of the present invention, is diagrammatically illustrated on FIG. 3 of the accompanying drawings. The first stage of reaction forms a disulfide compound by cleavage of the S--N bond of the thiadiazole ring. This disulfide X cannot be isolated, since it reacts very rapidly with a second mercaptan group to give the disulfide of phenethylmercaptan and intermediate XI. In connection with the actual enzyme, the second step involving attack of another thiol group would not happen because of steric factors inhibiting the approach of two enzymes, or would lead to the formation of a disulfide bond in the event that another proximal thiol group is present. In both cases, this would lead to the inhibition of the enzyme. In some cases, intermediate XI further degrades to 2-mercaptobenzimidazole VIII or 1-cyano-2-mercaptobenzimidazole XII. A similar mechanism is followed by the imidazothiadiazoles of the present invention. Further description and discussion of this reaction and test method is included in the specific example section hereof.
To a solution of 23 mg of 3-(dimethylamino)-1,2,4-thiadiazolo[4,5-a]benzimidazole in 10 mL of methanol was added 360 μL of phenethyl mercaptan. After 1 min, the reaction is complete. The solvent was evaporated and the crude material was purified by chromatography to give 15 mg of N^1, N^1 -dimethyl-2-mercapto-1-benzimidazolylamidine: ^1 H NMR (DMSO-d6) δ 7.3-7.0 (m, 4H, 4×ArH), 3.35 (br s, 2H, NH, SH), 2.88 (s, 6H, 2×NCH3) ppm; IR (KBr) .nu. 3210, 1641, 1475, 1452, 1407, 1319 cm^-1; MS m/z 220 (M+), 150 (M^+ -Me2 NC=NH).
To a solution of 23 mg of 3-methoxy-1,2,4-thiadiazolo [4,5-a]benzimidazole in 10 mL of methanol was added 376 μL of phenethyl mercaptan. After 1 min, the reaction is complete. The methyl 2-mercapto-1-benzimidazolecarboximidate was identified as the major reaction product of the reaction: ^1 H NMR (DMSO-d6) δ 13.45 (br s, 1H, SH or NH), 9.8 (s, 1H, NH or SH), 7.7 (d, 1H, J=8 Hz, ArH), 7.35-7.2 (m, 3H, 3×ArH), 3.95 (s, 3H, OCH3) ppm; IR (KBr) .nu. 3437, 3095, 1679, 1450, 1440, 1376, 1193, 735 cm^-1; MS m/z=207 (M^+), 150 (M^+ -MeOC=NH)
To a suspension of 26 mg of 3-(oxophenylmethyl)-1,2,4-thiadiazolo[4,5-a]benzimidazole in 10 mL methanol was added 31 μL of phenethyl mercaptan.
To a suspension of 25 mg of 3-[hydroxy(4-methoxy-3,5-dimethyl-2-pyridyl)methyl]-1,2,4-thiadiazolo[4,5- a]benzimidazole in 10 mL methanol was added 250 μL of phenethyl mercaptan.
To a suspension of 31 mg of 3-[(4-methylphenyl) sulfonyl]-1,2,4-thiadiazolo[4,5-a]benzimidazole in 10 mL methanol was added 313 μL of phenethyl mercaptan.
Phenethyl mercaptan (120 μL, 0.90 mmol) was added to a suspension of 3-[(4-4-methoxy-3,5-dimethyl-2-pyridyl) oxomethyl]-1,2,4-thiadiazolo[4,5-a]benzimidazole (300 mg, 0.887 mmol) in methanol (150 ml) and 0.1 M hydrochloric acid (38 mL). After stirring the mixture at room temperature for 51 h, the mixture was neutralized to pH 6 with aqueous sodium bicarbonate and extracted with ethyl ether. The ether layer was dried on sodium sulfate and evaporated.

[2] = Reaction of 1,2,4-thiadiazolo[4,5-a]benzimidazole derivative with 2-mercaptoethanol, determination of t1/2 values; details: compound 5×10^-3 M, 2-mercaptoethanol 1.15×10^-2 M, methanol, R.T., HPLC; 5000 µM
Protocol: The column is eluted with 70% 50 mM ammonium acetate; 30% acetonitrile as the mobile phase.
Percentage reaction completion was calculated as follows:
At time 0, 100% starting material remained unreacted.
At time t, % of unreacted starting material={hsample /hint.std at
time t}/{hsample /hint.std at time O}*100%.

[3] = Acid stability in 6 molar hydrochloric acid; type: physicochemical; details: minimum methanol, room temperature
Protocol: To examine acid stability of the captioned compound, the compound was dissolved in a minimum volume of methanol and the resulting solution was added to a 6 molar solution of hydrochloric acid.

[4] = system: gastric acid secretion; assay: Meal (8% peptone)-stimulated gastric acid secretion in rats; type: in vivo, Sprague-Dawley rats; details: rat, oral gavage, 300 μmol/kg
Protocol: Fasted, adult (140-240 g), male, Sprague-Dawley rats were fasted for 24 h from food, but not water, and then treated by oral gavage with 1 to 1.5 mL total volume of compound of Formula I (300 μmmol/Kg) on different days. Two hours later, rats were anesthetized with a combination of pentobartital and thiopental, the abdomen was opened and the pylorus was ligated, and tracheal, gastric, and peripheral venous canulas were placed. The stomachs were lavaged with 10 mL 0.9% saline every 10 min. for 30 min and the gastric effluent collected in receptacles to determine the basal acid secretion. Acid output was determined in each gastric effluent sample by back-titration to pH 7.0 using 0.02M NaOH. Then, 5 mL of an 8% peptone meal (pH 5.5) was instilled into the stomachs, mixed, and drained after 10 min each time for 2 hours. Acid output was determined in each gastric effluent containing the peptone meal by back-titration to pH 5.5 using 0.02 M NaOH.

[5] = system: gastric acid secretion; assay: Histamine-stimulated gastric acid secretion in anesthetized rats (dose-dependent study); type: in vivo, Sprague-Dawley rats; details: rat, oral gavage, at 3, 30, 300 μmol/kg doses; histamine 5 mg/kg i.v. infusion 2 h
Protocol: Fasted, adult (140-240 g), male, Sprague-Dawley rats were fasted for 24 h from food, but not water, and then treated by oral gavage with 1 to 1.5 mL total volume of 4 different doses (0.3, 3, 30, and 300 μmol/kg) of each compound on different days. Two hours later, rats were anesthetized with a combination of pentobartital and thiopental, the abdomen was opened and the pylorus was ligated, and tracheal, gastric, and peripheral venous canulas were placed. The stomachs were lavaged with 10 mL 0.9% saline every 10 min. for 30 min and the gastric effluent collected in receptacles. Acid output was determined in each gastric effluent sample by back-titration to pH 7.0 using 0.02M NaOH. Then, 5 mL of an 8% peptone meal (pH 5.5) was instilled into the stomachs, mixed, and drained after 10 min each time for 2 hours. Acid output was determined in each gastric effluent sample by back-titration to pH 7.0 using 0.02 M NaOH. After measuring basal acid output for at least 30 minutes, acid output was then measured during a 2 h intravenous infusion of histamine (5 mg/kg).

[6] = Solubility in water; type: physicochemical
[7] = system: gastric acid secretion; assay: Suppression of gastric acid secretion in animal model; type: in vivo
[8] = system: cAMP stimulated acid secretion, mouse gastric glands; assay: cAMP stimulated acid secretion (14C-aminopyrine accumulation) in isolated mouse gastric glands; type: cell-based; details: 100 μM, 60 min, 37° C.
Protocol: (§1) Acid secretion is measured indirectly by the accumulation of the weak base ^14 C-aminopyrine in the isolated murine gastric glands of mouse. The assay is performed in polypropylene eppendorf tubes containing 0.5 mL of resuspended mouse gastric glands. In addition, tubes contain the tested drug, acid secretagogues (e.g. histamine, di-butyryl cyclic AMP (cAMP), carbachol) and ^14 C-aminopyrine. Tubes are incubated for 60 min. at 37° C. and continuously rotated. The reaction is stopped by centrifugation of the gland suspension for five min. at 1500 g. Supernatant is aspirated leaving the pellet containing intact gastric glands. The pellet is washed extensively and digested overnight in 1 mL of Protosol (Amersham). After neutralisation with acetic acid and addition of scintillation fluid, the radioactivity is counted in a beta-counter (Beckman). The amount of radioactivity trapped in the pellet corresponds directly with the amount of acid being secreted. Each experimental point is done in triplicate. In each experiment, energy independent consumption was estimated with 0.1 mM of dinitrophenol and basal acid secretion in the absence of acid stimulants. These values were then subtracted from corresponding results in order to calculate basal or secretagogue stimulated acid secretion. […] Each experiment is repeated a number of times and all results are expressed as a % of the maximum stimulation.

[9] = system: histamine stimulated acid secretion, mouse gastric glands; assay: Histamine stimulated acid secretion (14C-aminopyrine accumulation) in isolated mouse gastric glands; type: cell-based; details: 100 μM, 60 min, 37° C.
Protocol: as §1

[10] = system: gastric acid secretion, mouse gastric glands; assay: In vitro inhibition of gastric acid secretion (14C-aminopyrine accumulation) in isolated mouse gastric glands, secretagogue not stated; type: cell-based; details: 1 h, 60 min, 37° C., read-out: ED50 (the source's name)

COc1c(C)cnc(C(O)c2nsc3nc4ccccc4n23)c1C (stereo not shown) [3-[hydroxy(4-methoxy-3,5-dimethyl-2-pyridyl)methyl]-1,2,4-thiadiazolo[4,5-a]benzimidazole]
conversion to 2-mercaptobenzimidazole on reaction with phenethyl mercaptan [1]: complete conversion

c1ccc2c(c1)nc1snc(N3CCOCC3)n12 [morpholino, 3-(4-morpholinyl)-1,2,4-thiadiazolo[4,5-a]benzimidazole]
t1/2 at pH = 7.0 [2]: 2.4 h

CN(C)c1nsc2nc3ccccc3n12 [Me2 N, 3-(dimethylamino)-1,2,4-thiadiazolo[4,5-a]benzimidazole]
time after which reaction with phenethyl mercaptan is complete [1]: ≤ 1 min
t1/2 at pH = 7.0 [2]: 1.5 h

COc1ccc2c(c1)nc1snc(C(=O)c3ncc(C)c(OC)c3C)n12 [7-methoxy-3-[(4-methoxy-3,5-dimethyl-2-pyridyl)oxomethyl]-1,2,4-thiadiazolo[4,5-a]benzimidazole]
acid stability [3]: very stable in acid and was totally recovered after stirring for 48 hours at room temperature
inhibition of meal-stimulated acid secretion [4]: significant (p<0.05) inhibition
acid output after 1 h ([4]; 8% peptone stimulated, after 1 h): 20 μmmol/30 min
inhibition of histamine-stimulated acid secretion [5]: significant (p<0.05) inhibition
solubility in water [6]: limited solubility in water
suppression of gastric acid secretion [7]: active in the suppression of gastric acid secretion

c1ccc(-c2nsc3nc4ccccc4n23)cc1 [phenyl]
t1/2 at pH = 7.0 [2]: 45 h

CC(=O)c1nsc2nc3ccccc3n12 [acetyl, 3-(1-oxoethyl)-1,2,4-thiadiazolo[4,5-a]benzimidazole]
t1/2 at pH = 7.0 [2]: 110 h

COc1nsc2nc3ccccc3n12 [MeO, 3-methoxy-1,2,4-thiadiazolo[4,5-a]benzimidazole]
time after which reaction with phenethyl mercaptan is complete [1]: ≤ 1 min
t1/2 at pH = 7.0 [2]: 0.31 h

c1ccc(-c2nsc3nc4ccccc4n23)nc1 [Example 2-pyridyl, 3-(2-pyridyl)-1,2,4-thiadiazolo[4,5-a]benzimidazole]
t1/2 at pH = 7.0 [2]: 134 h

COc1ccc2[nH]c([S+]([O-])Cc3ncc(C)c(OC)c3C)nc2c1 (stereo not shown) [Omeprazole, reference compound]
acid stability [3]: complete decomposition in a few minutes

COc1c(C)cnc(C(=O)c2nsc3nc4ccccc4n23)c1C [3-[(4-methoxy-3,5-dimethyl-2-pyridyl)oxomethyl]-1,2,4-thiadiazolo[4,5-a]benzimidazole]
recovered starting material after reaction with phenethyl mercaptan ([1]; methanol and 0.1 M hydrochloric acid, room temperature, 51 h): 14.6%

Cc1ccc(S(=O)(=O)c2nsc3nc4ccccc4n23)cc1 [3-[(4-methylphenyl)sulfonyl]-1,2,4-thiadiazolo[4,5-a]benzimidazole]
conversion to 2-mercaptobenzimidazole on reaction with phenethyl mercaptan [1]: complete conversion

c1ccc2c(c1)nc1snc(CN3CCOCC3)n12 [morpholinomethyl, 3-(morpholinomethyl)-1,2,4-thiadiazolo[4,5-a]benzimidazole]
t1/2 at pH = 7.0 [2]: 98 h

CN1CCN(c2nsc3nc4ccccc4n23)CC1.Cl.Cl [3-(4-methyl-1-piperazinyl)-1,2,4-thiadiazolo[4,5-a]benzimidazole dihydrochloride]
inhibition of cAMP stimulated acid secretion [8]: completely inhibited
inhibition of histamine stimulated acid secretion [9]: completely inhibited
IC50 [10]: 50 µM

CN1CCN(c2nsc3nc4ccccc4n23)CC1 [4-methylpiperazinyl, 3-(4-methyl-1-piperazinyl)-1,2,4-thiadiazolo-[4,5-a]benzimidazole]
t1/2 at pH = 7.0 [2]: 6.7 h

Cc1nsc2nc3ccccc3n12 [methyl, 3-methyl-1,2,4-thiadiazolo[4,5-a]benzimidazole]
t1/2 at pH = 7.0 [2]: 59 h

O=C(c1ccccc1)c1nsc2nc3ccccc3n12 [3-(oxophenylmethyl)-1,2,4-thiadiazolo[4,5-a]benzimidazole]
conversion to 2-mercaptobenzimidazole on reaction with phenethyl mercaptan [1]: complete conversion
